# In patent US20140045805A1, “Fragrance Compositions and Other Compositions Which Contain Naturally Occurring Substances Found in Corals” (priority 2007, published 2014):
# Read-outs that look alike come from different tables or passages of the source.
# What was measured:
# [1] = test system: peripheral nasal chemosensory receptors; conditions: androstadienone 27 picograms, muricin aglycone 30 picograms; adapted from Monti-Bloch et al. (1994); cited from earlier work
# humans = conditions: Grosser et al., 2000, cited from earlier work; for Effect on negative affect / negativity: administered nasally to humans
melting point,SMILES,Depolarization of the electrogram of peripheral nasal chemosensory receptors [1],Effect on negative affect / negativity (humans),"Effect on negative affect / negativity (humans; listed as Androsta-4,16-dien-3-one)","Effect on social warmth and friendliness, personal well-being and arousal/excitement (humans; humans)"
,"C[C@@]12C=CC[C@H]1[C@@H]1CCC3=CC(=O)CC[C@]3(C)[C@H]1CC2 [androstadienone, androsta-4,16-dien-3-one]",robust depolarization,decreased negativity,reduction of negative affect,no effect
124 to 126 °C,C=C[C@H]1CC[C@H]2[C@@H]3CC[C@H]4CC(=O)C=C[C@]4(C)[C@H]3CC[C@]12C,,,,
